# Data from article PMC9426601 (mBio, 2022).
# Read-outs that look alike come from different tables or passages of the source.
# How the values were obtained:
# A(H3N2)-PA/I38T [1] = type: cell-based, influenza A(H3N2) virus
# A(H1N1pdm09)-PA/E23K [2] = type: cell-based, influenza A(H1N1pdm09) virus
# A(H3N2)-PA/I38T [3] = type: cell-based, influenza A(H3N2) virus; remark: listed apart in the source
# A(H1N1pdm09)-PA/E23K [4] = type: cell-based, influenza A(H1N1pdm09) virus; remark: listed apart in the source
# [5] = test system: A(H3N2) 80% WT: 20% PA/I38T; set-up: species or system ferrets (Mustela putorius furo); AUC (area under the curve of nasal wash viral titer): unit not given beside the values; details: in vivo
# A(H3N2) 100% PA/I38T = test system: A(H3N2) 100% PA/I38T; set-up: species or system ferrets (Mustela putorius furo); AUC (area under the curve of nasal wash viral titer): unit not given beside the values; details: in vivo
# [6] = test system: A(H1N1pdm09) 80% WT: 20% PA/E23K; set-up: species or system ferrets (Mustela putorius furo); AUC (area under the curve of nasal wash viral titer): unit not given beside the values; details: in vivo
# [7] = test system: A(H1N1pdm09) 100% PA/E23K; set-up: species or system ferrets (Mustela putorius furo); AUC (area under the curve of nasal wash viral titer): unit not given beside the values; details: in vivo
# [8] = target: NA activity of A(H3N2)-PA/I38T (Influenza A virus, UniProt P06818); type: biochemical
# [9] = target: NA activity of A(H1N1pdm09)-PA/E23K (Influenza A virus, UniProt C7FH46); type: biochemical; details: read-out: IC50 (nM), neuraminidase inhibitor
# [10] = read-out: Baloxavir EC50 (nM) FRA
# [11] = read-out: Baloxavir EC50 (nM) YRA
# [12] = read-out: Oseltamivir IC50 (nM) YRA
compound,measurement,setting,value
"O=C1c2c(O)c(=O)ccn2N([C@@H]2c3ccccc3SCc3c2ccc(F)c3F)[C@@H]2COCCN12 [Baloxavir, baloxavir acid]","fold higher EC50 compared to the corresponding pretreatment virus, FRA",A(H3N2)-PA/I38T [1],77 fold
same,EC50,A(H3N2)-PA/I38T [1]; [10],46 ± 6.9 nM
same,"fold higher EC50 compared to the corresponding pretreatment virus, FRA",A(H1N1pdm09)-PA/E23K [2],17 fold
same,EC50,A(H1N1pdm09)-PA/E23K [2]; [10],20.8 ± 10.2 nM
same,"fold increase in EC50 compared to the corresponding WT, YRA",A(H3N2)-PA/I38T [3],100 fold
same,EC50,A(H3N2)-PA/I38T [3]; [11],40.1 ± 15.6 nM
same,"fold increase in EC50 compared to the corresponding WT, YRA",A(H1N1pdm09)-PA/E23K [4],9 fold
same,EC50,A(H1N1pdm09)-PA/E23K [4]; [11],2.6 ± 0.07 nM
same,AUC (area under the curve of nasal wash viral titer),[5],18.6 ± 1.4
same,Duration of viral shedding,[5],4.7 ± 0.5 days
same,AUC (area under the curve of nasal wash viral titer),A(H3N2) 100% PA/I38T,23.4 ± 1.4
same,Duration of viral shedding,A(H3N2) 100% PA/I38T,5.7 ± 0.5 days
same,reduction in AUC relative to placebo,A(H3N2) 100% PA/I38T,10%
same,reduction in viral shedding relative to placebo,A(H3N2) 100% PA/I38T,0.6 days
same,AUC (area under the curve of nasal wash viral titer),[6],24.7 ± 2.4
same,Duration of viral shedding,[6],5.3 ± 0.5 days
same,reduction in AUC relative to placebo,[6],6%
same,AUC (area under the curve of nasal wash viral titer),[7],28.6 ± 0.8
same,Duration of viral shedding,[7],6.3 ± 0.5 days
same,rapid reduction in viral load in the first 24 h following treatment,[7],not observed
same,reduction in AUC relative to placebo,[7],no significant difference
"CCOC(=O)C1=C[C@@H](OC(CC)CC)[C@H](NC(C)=O)[C@@H](N)C1 [Oseltamivir, oseltamivir]",IC50,A(H3N2)-PA/I38T [3]; [12],[…]
same,IC50,[8]; read-out: Oseltamivir IC50 (nM) NIA,0.15 ± 0.11 nM
same,AUC (area under the curve of nasal wash viral titer),[5],19.3 ± 1.8
same,AUC (area under the curve of nasal wash viral titer),[6],26.9 ± 1.7
same,AUC greater than placebo,[6],7%
same,AUC (area under the curve of nasal wash viral titer),[7],26.2 ± 1.3
CCC(CC)[C@H](NC(C)=O)[C@@H]1[C@H](O)[C@@H](C(=O)O)C[C@H]1N=C(N)N [Peramivir],IC50,"[8]; read-out: IC50 (nM), neuraminidase inhibitor",0.12 ± 0.1 nM
same,IC50,[9],0.17 ± 0.01 nM
